Reference: US12419890B2, “Administration of sumo-activating enzyme inhibitor and checkpoint inhibitors” (Takeda Pharmaceutical Company Limited, priority 2019, dated 2025)

Assays:
[1] = tested on: WEHI-3 syngeneic mouse myelomonocytic leukemia-derived subcutaneous tumor; test: WEHI-3 Study 5: mouse WEHI-3 syngeneic tumor model, individual tumor volume; type: in vivo; details: Compound I-263a 7.5 mg/kg IV BIW till Day 14
Method: WEHI-3 Study 5: WEHI-3 is a mouse myelomonocytic leukemia cell line. WEHI-3 mouse syngeneic tumor model was generated by subcutaneous inoculation with 0.1×10^6 WEHI-3 cells (cell suspension) in 9 weeks old female BALB/c mice (SINO-British SIPPR/BK Lab Animal Ltd. Shanghai, China) in the flank. When the mean tumor volume reached approximately 30 mm^3, the animals were randomized into one vehicle control and five treatment groups (n=8/group). Mice were then dosed with 20% HPbCD or Compound I-263a or anti-mouse PD-1 antibody or anti-mouse CTLA-4 antibody over a 21-day period. Tumor growth and body weight were measured twice per week during the treatment and post-treatment periods, and mice were humanely euthanized once they had reached their humane endpoint.
Study 5: A 0.75 mg/mL stock solution of Compound I-263a was formulated weekly in 20% HPβCD and administered intravenously (IV) based on exact animal body weight on each day of treatment, using a dosing volume of 10 mL/kg body weight. Final doses received were 7.5 mg/kg. Dosing volume for Compound I-263a was 0.2 mL. Anti-mouse PD1 antibody (anti-mPD-1) (Bio X Cell, 10 Technology Drive, Suite 2B, West Lebanon, NH 03784) was formulated prior to each injection at 2.0 mg/mL in Phosphate-buffered saline (PBS) and administered intraperitoneally (IP) based on exact body weight on each day of treatment, using a dosing volume of 5 mL/kg resulting in a 10 mg/kg dose. Dosing volume for anti-mPD-1 was 0.1 mL. Anti-mouse CTLA-4 antibody (anti-mCTLA-4) (Bio X Cell, 10 Technology Drive, Suite 2B, West Lebanon, NH 03784) was formulated prior to each injection at 2.0 mg/mL in Phosphate-buffered saline (PBS) and administered intraperitoneally (IP) based on exact body weight on each day of treatment, using a dosing volume of 5 mL/kg resulting in a 10 mg/kg dose. […]
Tumors were measured twice weekly using vernier calipers. Tumor volumes were calculated using standard equation: V=W^2×L/2, where V=volume, W=width, and L=length for the tumor. […] Tumor size and body weight were measured twice a week for the duration of the study. […]

[2] = tested on: SUMO-activating enzyme and SUMOylation; test: inhibition of SUMO-activating enzyme and SUMOylation in cultured tumor cell lines; type: cell-based; details: cultured mouse and human tumor cell lines
Excerpt: SAE inhibitors, as disclosed herein, are described, for example, in US 2016/0009744 and U.S. Pat. No. 9,695,154. They may be prepared by methods known to one skilled in the art and/or according to the methods described in US 2016/0009744 and U.S. Pat. No. 9,695,154, which is hereby incorporated by reference in its entirety. Central to the mechanism of action of useful SAE inhibitors, such as Compound I-263a, in combinations and methods of the present disclosure is production of type 1 IFNs and induction of an innate immune response with activation of dendritic cells, natural killer (NK) cells and macrophages.

In the case of Cc1sc(C(=O)c2cncnc2N[C@@H]2C[C@H](COS(N)(=O)=O)[C@@H](O)C2)cc1[C@@H]1NCCc2ccc(Cl)cc21 [Compound I-263a, [(1R,2S,4R)-4-{[5-({4-[(1R)-7-chloro-1,2,3,4-tetrahydroisoquinolin-1-yl]-5-methyl-2-thienyl}carbonyl)pyrimidin-4-yl]amino}-2-hydroxycyclopentyl]methyl sulfamate], the “tumor growth inhibition / antitumor activity relative to vehicle” value ([1]; anti-mPD-1 10 mg/kg IP BIW till Day 10, anti-mCTLA-4 10 mg/kg IP Q4D till Day 8, 8 tumors/group) was “modest inhibition”, the tumor growth delays ([1]; delay to 11-14 days) was “one” and the “tumors with slight tumor growth delay” value ([1]; delays to 7-11 days, of the 8 implanted tumors) was 6. For the same compound, the “inhibition of SUMO-activating enzyme and SUMOylation” value [2] was “Selective and potent inhibition”.
